Consider one molecule from patent US20230321171A1, “ANTI-COCCIDIAL COMPOSITION COMPRISING MANGOSTEEN AND USES THEREOF” (CJ CHEILJEDANG CORPORATION, priority 2020, published 2023).

The structures appear in SMILES notation.

One series relates to Eimeria acervulina. The series can be described thus: Protozoan (sporozoite) direct killing ability, Eimeria acervulina. Type of series: cell-based. The note with it: for Eimeria acervulina protozoal death rate (%): compared to PBS-treated negative control group; for Minimum concentration for killing 100% protozoa (ppm), Eimeria acervulina: tested 1 to 500 ppm. The protocol:
In the present example, protozoan (sporozoite) direct killing ability evaluation was conducted against 3 representative Eimeria kinds known to be infected in most farms (E. tenella, E. acervulina, E. maxima).
A certain amount of oocysts of each protozoan was put in a tube containing glass beads and pulverized, and then to remove the crushed oocyst cell wall and other debris, internal sporocysts were purified using the percoll density gradient, and washed with PBS solution. A reagent comprising sodium taurocholic acid (Sigma aldrich, USA) and trypsin (Gibco, USA), respectively, was treated to sporocysts of Eimeria tenella, Eimeria acervulina and Eimeria maxima for excystation and they were incubated, and then they were washed with PBS solution once and protozoa were obtained.
After reacting the mangosteen pericarp extract, epicatechin, alpha-mangostin, xanthone and anticoccidial agents, salinomycin and diclazuril (hereinafter, material) with 3 kinds of Eimeria protozoa at various concentrations of 1 to 500 ppm, respectively, only alive protozoa (sporozoites) were counted through microscopic observation. Then, the death rate (%) of the protozoa when each material was treated compared to the PBS-treated negative control group was calculated and shown in Table 8 to Table 10 and Table 12, respectively, and the minimum concentration which directly killed the protozoa by 100% was shown in Table 11 below.

The subject of series [1] is MDBK(Madin-Darby Bovine Kidney Epithelial Cells). The series can be described thus: Cytotoxicity, MTS analysis, MDBK. The note with it: 3.1~500 ppm/well, 14 hours + 2 hours MTS, vs 5% DMSO treatment group. From the text: (§1) In the present example, using MTS analysis method (3-(4,5-[…])-5-(3-carboxymethoxyphenyl)-2-(4-sulfophenyl)-2H-tetrazolium, promega, USA), an effect on survival of cells of the mangosteen extract was investigated.
(§2) The cell lines utilized in cytotoxicity evaluation were (1) MDBK(Madin-Darby Bovine Kidney Epithelial Cells) and (2) RAW264.7(Mouse macrophage cell), and all of them were purchased from ATCC and used.
(§3) Each cell was aliquoted at a concentration of 1×10^5 cell/well in a 96-well cell culture plate, and cultured at 37° C. for 24 hours, and then each material (mangosteen extract, xanthone, alpha-mangostin and epicatechin) was treated by concentration (3.1˜500 ppm/well) and cultured at a temperature of 37° C.

A further series deals with Eimeria tenella. The series can be described thus: In vivo anticoccidial efficacy evaluation in broilers challenge-inoculated with Eimeria tenella. On the set-up: species or system Ross broilers. The protocol:
An in vivo anticoccidial efficacy evaluation test was performed in an animal experiment facility in Gyeongsangnam-do, South Korea. One-day-old female Ross broilers were individually weighed and randomly divided into groups to use in an experiment. Matters and conditions for experimental design were described in Table 2.
A breeding farm was managed according to the Korean poultry breeding management guidelines. Cages and the breeding farm were cleaned and disinfected before starting the test. The temperature of […] and the humidity of 40 to 50% of the breeding farm were maintained, and it was continuously monitored.
For the feed, Korea Feed Al-choi product was used, and each material (salinomycin (Cheil Bio Cheilsalino-60 product), xanthone (Sigma Aldrich X600 product), and the mangosteen extract prepared in Example 1-2 above) was added to the feed, respectively, at a concentration described in Table 3 below to be self-mixed. Antibiotics and supplements were not used in general feed and mixed feed, and no anticoccidial agent other than each material was added. Broilers were fed ad libitum throughout the experiment period. After putting 20 1-day-age broilers in cages randomly placed for each of the control group or test group and breeding, general feed was fed for 7 days, and then the mixed feed prepared above was ingested by dividing by control group or test group.
The feed formulation administered to the control group (negative control group or positive control group) and test group and whether coccidiosis was induced by Eimeria tenella were described in Table 3 below. 20 1-day-old broilers were put in a cage randomly arranged for each test group, and after 7 days of feeding the general feed, the formulated feed as described in Table 3 was divided into each test group and ingested.
14-day-old broilers were orally inoculated with 10,000 oocysts (90% sporulated Eimeria tenella oocysts) per individual to induce coccidiosis.
The anticoccidial efficacy by test group designed in Example 1-3 above was shown as an anticoccidial index (ACI), and the anticoccidial index was calculated by Equation 2 below. The ACI score is out of 200 points, and the higher the ACI score, the more excellent the anticoccidial ability, and when it is 120 points or more to less than 140 points, it is determined that it is effective as an anticoccidial material, and when it is 140 points or more to less than 160 points, it is determined that it is excellent as an anticoccidial material, and when it is 160 points or more, it is determined that the anticoccidial effect is very excellent. (Luis Miguel De Pablos et al., Anticoccidial activity of maslinic acid against infection with Eimeria tenella in chickens, Parasitol Res, 2010)
Anticoccidial index (ACI)=(survival rate after challenge inoculation (%))+(daily weight gain compared to negative control group (RWG, %))−(lesion score×10)−(fecal oocyst excretion amount index) (Equation 2)
1) Survival rate: the number of dead individuals was recorded daily, and post mortem autopsy was performed to determine a cause of mortality, and the number of individuals who died due to causes other than coccidiosis was excluded. The survival rate (%) up to the 8th day after challenge inoculation was used for anticoccidial index calculation.
2) Daily weight gain: body weight was measured for each cage before challenge inoculation with a protozoan into an individual and at the 7th day after challenge inoculation, and the difference was divided by the number of days to calculate the daily weight gain (ADG, g/d). ‘Daily weight gain compared to the negative control group (RWG, %)’which was calculated by dividing the daily weight gain (ADG, average daily gain; g/d) of each experimental group by the weight gain (ADG, g/d) of the non-infected negative control group and multiplying by 100 was used for anticoccidial index calculation. […]

The subject of series [2] is RAW264.7(Mouse macrophage cell). Description: Cytotoxicity, MTS analysis, RAW264.7. The note with it: 3.1~500 ppm/well, 14 hours + 2 hours MTS, vs 5% DMSO treatment group.
From the text: as §1, §2, §3

In the case of `O=c1c2ccccc2oc2ccccc12` [Xanthone, xanthone], the “Eimeria acervulina protozoal death rate (%)” value in the series with Eimeria acervulina (1 ppm), with Eimeria acervulina (5 ppm), in the series with Eimeria acervulina (10 ppm), with Eimeria acervulina (50 ppm), with Eimeria acervulina (100 ppm) and in the series on Eimeria acervulina (125 ppm) was 0% each time. The “Eimeria acervulina protozoal death rate (%)” value turned out to be 11% in the series with Eimeria acervulina (250 ppm) and 25% in the series on Eimeria acervulina (500 ppm). Also, the “Minimum concentration for killing 100% protozoa (ppm), Eimeria acervulina” value with Eimeria acervulina and in the series on Eimeria acervulina (listed as xanthone) was over 500 ppm throughout. Further, the “Minimum concentrataion of cytotoxicity at which cells of 50% or more survive (ppm)” value in series [1] and in series [2] was at least 62.5 ppm throughout. For the same molecule, the “Intermediate body weight (14-day-old, before challenge inoculation)” value in the series on Eimeria tenella (formulated feed 62.5 ppm from day 7, female Ross broilers) worked out at 470.9. In the series on Eimeria tenella (formulated feed 62.5 ppm, 8th day after challenge inoculation, scale of 0-4), the Appendix lesion score was determined as 2.4. The “End body weight (21-day-old, on the 7th day of challenge inoculation)” value with Eimeria tenella (formulated feed 62.5 ppm, 10,000 E. tenella oocysts oral at 14 days) stood at 887.0. Also, in the series on Eimeria tenella (formulated feed 62.5 ppm, E. tenella infected broilers), the “Day 14~Day 21 ADG (daily weight gain)” value was found to be 56.42 g/day. In the series with Eimeria tenella (formulated feed 62.5 ppm, Equation 2, out of 200 points), the “Anticoccidial index (ACI)” value is 122. In addition, in the series on Eimeria tenella (formulated feed 62.5 ppm, feces of 6~8th day of challenge inoculation, McMaster chamber), the Oocyst excretion amount/gram is reported as 1.80E+08 /gram. For the same molecule, the “RWG (daily weight gain compared to the negative control group)” value in the series on Eimeria tenella (formulated feed 62.5 ppm, relative to non-infected negative control group) came out at 85%.
